According to ChEMBL document CHEMBL3396974, “Synthetic approaches, functionalization and therapeutic potential of quinazoline and quinazolinone skeletons: the advances continue” (Eur J Med Chem, 2015):
Converted amounts (≈) assume the structure as drawn.

Assays:
Mus musculus = species on record: Mus musculus; assay: Anticonvulsant activity in mouse assessed as protection against maximal electroshock-induced seizures; assay type: functional
Pseudomonas aeruginosa [1] = assay: Antibacterial activity against Pseudomonas aeruginosa MTCC 741; assay type: functional
Bacillus subtilis = assay: Antibacterial activity against Bacillus subtilis; assay type: functional
Escherichia coli [2] = assay: Antibacterial activity against Escherichia coli MTCC 739; assay type: functional
Candida albicans = assay: Antifungal activity against Candida albicans MTCC 183; assay type: functional
Saccharomyces cerevisiae = assay: Antifungal activity against Saccharomyces cerevisiae; assay type: functional
Staphylococcus aureus [3] = assay: Antibacterial activity against Staphylococcus aureus MTCC 96; assay type: functional
[4] = Antiproliferative activity against human breast cancer cells; assay type: functional, cell-based; conditions: Cancer cell lines
[5] = Antiproliferative activity against human lung cancer cells; assay type: functional, cell-based; conditions: Cancer cell lines
[6] = Antiproliferative activity against human colon cancer cells; assay type: functional, cell-based; conditions: Cancer cell lines
Bacillus cereus [7] = assay: Antibacterial activity against Bacillus cereus MTCC 430; assay type: functional
Pseudomonas aeruginosa [8] = assay: Antibacterial activity against Pseudomonas aeruginosa MTCC 741 assessed as zone of inhibition; assay type: functional
Klebsiella pneumoniae [9] = assay: Antibacterial activity against Klebsiella pneumoniae MTCC 109; assay type: functional
Bacillus cereus [10] = assay: Antibacterial activity against Bacillus cereus MTCC 430 assessed as zone of inhibition; assay type: functional
Staphylococcus aureus [11] = assay: Antibacterial activity against Staphylococcus aureus MTCC 96 assessed as zone of inhibition; assay type: functional
Klebsiella pneumoniae [12] = assay: Antibacterial activity against Klebsiella pneumoniae MTCC 109 assessed as zone of inhibition; assay type: functional
[13] = Photocytotoxicity activity against human HL60 cells measured after UV irradiation; assay type: functional; conditions: HL-60, light or radiation study
Dihydrofolate reductase = target: T1, Dihydrofolate reductase (Homo sapiens, UniProt P00374); assay: Inhibition of DHFR (unknown origin)
T1 sequence (P00374 whole entry): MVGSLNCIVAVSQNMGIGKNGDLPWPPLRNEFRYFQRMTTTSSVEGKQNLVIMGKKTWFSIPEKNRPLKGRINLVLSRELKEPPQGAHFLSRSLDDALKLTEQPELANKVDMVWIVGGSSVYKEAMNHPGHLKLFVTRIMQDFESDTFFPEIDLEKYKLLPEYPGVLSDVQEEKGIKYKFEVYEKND

HUVEC [14] = assay: Inhibition of cell adhesion in HUVEC at 15 uM after 3 hrs at 37 degC; assay type: functional; conditions: Homo sapiens
HUVEC [15] = assay: Inhibition of cell adhesion in HUVEC at 30 uM after 3 hrs at 37 degC; assay type: functional; conditions: Homo sapiens
[16] = Cytotoxicity against human CNE2 cells by MTT assay; assay type: functional, cell-based; conditions: CNE-2
[17] = Cytotoxicity against human PC3 cells by MTT assay; assay type: functional, cell-based; conditions: PC-3
SMMC-7721 = assay: Cytotoxicity against human SMMC7721 cells by MTT assay; assay type: functional, cell-based
[18] = target: Epidermal growth factor receptor (Homo sapiens, UniProt P00533); assay: Inhibition of EGFR (unknown origin)
[19] = target: T2, Pro-cathepsin H (Homo sapiens) (UniProt P09668); assay: Inhibition of Cathepsin H (unknown origin) at 1 x 10^-4 M
T2 sequence (whole entry): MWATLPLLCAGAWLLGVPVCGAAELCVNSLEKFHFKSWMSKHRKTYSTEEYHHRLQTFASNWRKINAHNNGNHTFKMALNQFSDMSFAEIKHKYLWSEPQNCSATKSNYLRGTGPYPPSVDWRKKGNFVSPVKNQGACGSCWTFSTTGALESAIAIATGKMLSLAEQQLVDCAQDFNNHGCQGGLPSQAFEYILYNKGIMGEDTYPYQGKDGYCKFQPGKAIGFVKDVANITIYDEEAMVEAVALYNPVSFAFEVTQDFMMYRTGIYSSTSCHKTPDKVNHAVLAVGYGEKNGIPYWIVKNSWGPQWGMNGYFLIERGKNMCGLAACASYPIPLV

Staphylococcus aureus [20] = assay: Antibacterial activity against methicillin-resistant Staphylococcus aureus; assay type: functional
[21] = target: Cathepsin B (Homo sapiens) (UniProt P07858); assay: Inhibition of Cathepsin B (unknown origin) at 0.1 x 10^-4 M
[22] = target: Cathepsin B (Homo sapiens) (UniProt P07858); assay: Inhibition of Cathepsin B (unknown origin) at 1 x 10^-4 M
[23] = Cytotoxicity against human PC3 cells assessed as inhibition of cell growth; assay type: functional, cell-based; conditions: PC-3
[24] = test system: Mycobacterium tuberculosis; assay: Antimycobacterial activity against Mycobacterium tuberculosis H37Rv; assay type: functional
[25] = target: T2, Pro-cathepsin H (Homo sapiens); assay: Inhibition of Cathepsin H (unknown origin) at 0.25 x 10^-4 M
Staphylococcus aureus [26] = assay: Antibacterial activity against Staphylococcus aureus assessed as zone of inhibition; assay type: functional
Escherichia coli [27] = assay: Antibacterial activity against Escherichia coli assessed as zone of inhibition; assay type: functional
[28] = target: Cathepsin B (Homo sapiens) (UniProt P07858); assay: Inhibition of Cathepsin B (unknown origin) at 0.50 x 10^-4 M

Epidermal growth factor receptor, sequence (P00533 whole entry): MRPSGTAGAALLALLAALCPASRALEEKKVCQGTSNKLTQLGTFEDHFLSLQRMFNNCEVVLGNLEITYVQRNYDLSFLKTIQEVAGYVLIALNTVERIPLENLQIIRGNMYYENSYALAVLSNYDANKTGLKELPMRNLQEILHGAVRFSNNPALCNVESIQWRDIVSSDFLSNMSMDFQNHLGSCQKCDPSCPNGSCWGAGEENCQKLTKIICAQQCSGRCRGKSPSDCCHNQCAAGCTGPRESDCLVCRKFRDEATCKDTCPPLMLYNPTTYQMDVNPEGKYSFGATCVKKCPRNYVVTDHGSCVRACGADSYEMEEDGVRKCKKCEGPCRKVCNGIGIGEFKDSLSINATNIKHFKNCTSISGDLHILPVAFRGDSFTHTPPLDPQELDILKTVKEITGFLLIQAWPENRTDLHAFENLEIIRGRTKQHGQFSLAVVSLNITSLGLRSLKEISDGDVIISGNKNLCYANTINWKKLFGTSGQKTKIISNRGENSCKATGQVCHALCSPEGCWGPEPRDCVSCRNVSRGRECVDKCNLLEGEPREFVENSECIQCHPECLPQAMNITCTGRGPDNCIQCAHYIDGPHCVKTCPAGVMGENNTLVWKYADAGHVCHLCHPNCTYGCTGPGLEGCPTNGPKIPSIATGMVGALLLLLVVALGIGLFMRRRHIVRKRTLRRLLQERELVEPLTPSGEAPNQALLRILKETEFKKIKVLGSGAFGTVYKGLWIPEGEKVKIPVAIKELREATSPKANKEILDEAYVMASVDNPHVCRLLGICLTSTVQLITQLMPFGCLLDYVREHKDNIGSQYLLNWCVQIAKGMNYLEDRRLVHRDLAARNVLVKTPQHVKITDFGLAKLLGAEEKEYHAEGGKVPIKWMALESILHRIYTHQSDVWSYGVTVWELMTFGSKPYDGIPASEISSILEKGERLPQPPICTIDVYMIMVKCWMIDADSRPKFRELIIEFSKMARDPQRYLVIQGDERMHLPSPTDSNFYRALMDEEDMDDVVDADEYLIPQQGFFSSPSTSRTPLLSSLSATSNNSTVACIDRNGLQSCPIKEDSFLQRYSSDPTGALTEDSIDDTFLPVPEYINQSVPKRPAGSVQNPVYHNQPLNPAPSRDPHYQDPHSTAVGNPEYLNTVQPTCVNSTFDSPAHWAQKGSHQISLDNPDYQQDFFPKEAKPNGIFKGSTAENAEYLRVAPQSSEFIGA

In the case of COc1cc2nc(/C=C/c3ccccc3Cl)n(-c3ccccc3[N+](=O)[O-])c(=O)c2cc1OC, the ED50 (Mus musculus) is reported as 98.2 µmol/kg.
In the case of O=c1c2ccccc2nc(-c2ccc(Cl)cc2)n1Cc1ccccc1, the MIC (Pseudomonas aeruginosa [1]) is reported as 30.1 µg/mL (≈ 86.8 µM), the MIC (Bacillus subtilis) is reported as 24.3 µg/mL (≈ 70.1 µM) and the MIC (Escherichia coli [2]) is reported as 25.1 µg/mL (≈ 72.4 µM). The MIC (Candida albicans) was 26.1 µg/mL (≈ 75.3 µM), the MIC (Saccharomyces cerevisiae) was 18.3 µg/mL (≈ 52.8 µM) and the MIC (Staphylococcus aureus [3]) was 25.6 µg/mL (≈ 73.8 µM).
O=c1c2ccccc2ncn1/N=C/c1ccc(O)c(O)c1O showed an IC50 [4] of 140 nM, an IC50 [5] of 79 nM and an IC50 [6] of 320 nM.
In the case of Cc1cccc(Oc2nc(-c3ccc(NC(=O)Nc4ccc(Br)cc4)cc3)nc3ccccc23)c1, the MIC (Bacillus cereus [7]) is reported as 12.5 µg/mL (≈ 23.8 µM), the “inhibition zone (IZ)” value (Pseudomonas aeruginosa [8]) is reported as 25 mm and the MIC (Pseudomonas aeruginosa [1]) is reported as 25 µg/mL (≈ 47.6 µM). For the same compound, the MIC (Klebsiella pneumoniae [9]) was 12.5 µg/mL (≈ 23.8 µM), the “inhibition zone (IZ)” value (Bacillus cereus [10]) was 26 mm and the “inhibition zone (IZ)” value (Staphylococcus aureus [11]) was 29 mm. For the same compound, the “inhibition zone (IZ)” value (Klebsiella pneumoniae [12]) was 27 mm, the MIC (Candida albicans) was 12.5 µg/mL (≈ 23.8 µM) and the MIC (Staphylococcus aureus [3]) was 6.25 µg/mL (≈ 11.9 µM).
CC1(C)CC(=O)C2=C(C1)N=C1Sc3ccccc3N1C2c1ccccc1C(F)(F)F (centres undefined) gave a GI50 [13] of 900 nM.
With COc1cc(/C=C2\CCCc3c2nc(C)nc3-c2cc(OC)c(OC)c(OC)c2)cc(OC)c1OC the IC50 (Dihydrofolate reductase) was 500 nM.
COc1ccc(C(=O)NCC(=O)OCCn2c(=O)c3ccccc3n(C)c2=O)cc1 gave an MIC (Bacillus subtilis) of 4 µg/mL (≈ 9.72 µM).
For CN(C)CCCNc1nc(-c2ccccc2NC(=O)CCN2CCN(C)CC2)nc2ccccc12, the inhibition at 15 µM (HUVEC [14]) was 65.8%, the inhibition at 30 µM (HUVEC [15]) was 71.2% and the IC50 [16] was 9300 nM. It also gave an IC50 [17] of 9800 nM and an IC50 (SMMC-7721) of 10900 nM.
Clc1cc(Nc2ncnc3ccc(NC4=NC[C@@H](COc5ccccc5)O4)cc23)ccc1OCc1nccs1 gave an IC50 [18] of 950 nM.
In the case of CN(C)c1ccc(/C=C2\CCCC3=C2NC(=O)NC3c2ccc(N(C)C)cc2)cc1 (centres undefined), the inhibition [19] is reported as 100%.
COc1cc2nc(/C=C/c3ccccc3Cl)n(-c3ccc(Br)cc3)c(=O)c2cc1OC gave an ED50 (Mus musculus) of 41.3 µmol/kg.
For Cn1c(=O)n(CCOC(=O)CNC(=O)c2ccc(F)cc2)c(=O)c2ccccc21, the MIC (Staphylococcus aureus [20]) was 4 µg/mL (≈ 10 µM).
CN[C@@H]1[C@H](O[C@H]2[C@H](O[C@H]3[C@H](O)[C@@H](O)[C@H](N=C(N)N)[C@@H](O)[C@@H]3N=C(N)N)O[C@@H](C)[C@]2(O)C=O)O[C@@H](CO)[C@H](O)[C@H]1O [STREPTOMYCIN] gave an MIC (Bacillus subtilis) of 32 µg/mL (≈ 55 µM).
Compound Clc1cc(Nc2ncnc3ccc(NC4=NC[C@H](COc5ccccc5)O4)cc23)ccc1OCc1nccs1 has an IC50 [18] of 1210 nM.
Cn1c(=O)n(CCOC(=O)CNC(=O)c2ccc([N+](=O)[O-])cc2)c(=O)c2ccccc21 showed an MIC (Staphylococcus aureus [20]) of 4 µg/mL (≈ 9.38 µM).
With Cn1c(=O)n(CCOC(=O)CNC(=O)/C=C/c2ccccc2)c(=O)c2ccccc21 the MIC (Bacillus subtilis) was 4 µg/mL (≈ 9.82 µM) and the MIC (Staphylococcus aureus [20]) was 4 µg/mL (≈ 9.82 µM).
In the case of COc1ccc(/C=C2\CCCc3c2nc(C)nc3-c2ccc(OC)c(OC)c2)cc1OC, the IC50 (Dihydrofolate reductase) is reported as 100 nM.
CC1(C)CC(=O)C2=C(C1)N=C1Sc3ccccc3N1C2c1ccc(F)cc1 (centres undefined) gave a GI50 [13] of 900 nM.
COc1cc2nc(/C=C/c3ccccc3Cl)n(-c3ccncc3)c(=O)c2cc1OC gave an ED50 (Mus musculus) of 66.4 µmol/kg.
Work on O=C1NC2=C(CCC/C2=C\C=C\c2ccccc2)C(/C=C/c2ccccc2)N1 (centres undefined) yielded an inhibition [21] of 50% and an inhibition [22] of 100%.
Work on COc1ccc(/C=C2\CCCc3c2nc(N)nc3-c2ccc(OC)c(OC)c2)cc1OC yielded an IC50 (Dihydrofolate reductase) of 14000 nM.
With C[Se](=O)O [METHYLSELENINIC ACID] the IC50 [23] was < 8400 nM.
In the case of Cc1cccc(Oc2nc(-c3ccc(NC(=S)Nc4ccc(Br)cc4)cc3)nc3ccccc23)c1, the “inhibition (INH)” value [24] is reported as 99% and the MIC ([24]; Mycobacterium tuberculosis, H37Rv) is reported as 12.5 µg/mL (≈ 23.1 µM).
CN(C)c1ccc(/C=C2\CCCC3=C2NC(=S)NC3c2ccc(N(C)C)cc2)cc1 (centres undefined) showed an inhibition [25] of 100%.
With CC[C@@]1(O)C(=O)OCc2c1cc1n(c2=O)Cc2cc3c(CN(C)C)c(O)ccc3nc2-1 [TOPOTECAN] the IC50 [23] was < 4000 nM.
Compound COc1cc(/C=C2\CCCc3c2nc(N)nc3-c2cc(OC)c(OC)c(OC)c2)cc(OC)c1OC has an IC50 (Dihydrofolate reductase) of 14000 nM.
Cn1c(=O)n(CCOC(=O)CNC(=O)c2ccco2)c(=O)c2ccccc21 gave an MIC (Bacillus subtilis) of 4 µg/mL (≈ 10.8 µM).
Compound CC1(C)CC(=O)C2=C(C1)N=C1Sc3ccccc3N1C2c1ccc(C(F)(F)F)cc1 (centres undefined) has a GI50 [13] of 900 nM.
For COc1cc2nc(/C=C/c3ccccc3Cl)n(-c3ccc([N+](=O)[O-])cc3)c(=O)c2cc1OC, the ED50 (Mus musculus) was 41.3 µmol/kg.
With Oc1ccc(/C=N/NC2=NC3=C(CCCC3)C(c3ccccc3)N2)cc1 (centres undefined) the “inhibition zone (IZ)” value (Staphylococcus aureus [26]) was 18 mm and the “inhibition zone (IZ)” value (Escherichia coli [27]) was 17 mm.
S=C1NC2=C(CCC/C2=C\C=C\c2ccccc2)C(/C=C/c2ccccc2)N1 (centres undefined) showed an inhibition [28] of 100%.
